Assay results: article PMC9944328 (Nature Communications, 2023)
pEC50: −log10 of the molar value. Read-outs that look alike come from different tables or passages of the source.

System: SSTR2 mutants
Experiment: NanoBiT β-arrestin 1 recruitment assay, HEK293 (SSTR2 mutants);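 for Best-fit values Bottom: percent of maximal wild-type response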;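 for Best-fit values Span: percent of maximal wild-type response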;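 for Best-fit values Top: percent of maximal wild-type response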;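 for Bottom (best-fit): percent of maximal wild-type response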;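 for Span (best-fit): percent of maximal wild-type response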;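 for Top (best-fit value): percent of maximal wild-type response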;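 for Top (best-fit): percent of maximal wild-type response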;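 for Top: percent of maximal wild-type response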
Type: cell-based, human
Design: Bottom / Span / Bottom (best-fit) / Span (best-fit) / Best-fit values Bottom / Best-fit values Span / Bottom (best-fit value) / Span (best-fit value):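 percent of maximal wild-type response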
Experimental: The NanoBiT β-arrestin 1 recruitment assays were carried out according to the method described previously. […] Human full-length SSTR wild-type and mutant vectors were C-terminally fused with a 15-amino acid flexible linker and the small fragment (SmBiT). HEK293 cells were seeded into six-well microplates at a density of 1.0 × 10^6 cells/well and cultured for 24 h at 37 °C with 5% CO2. After that, cells were co-transfected with pcDNA3.1+ vectors encoding SSTR wild-type or mutants and human β-arrestin 1. After transfecting for 24 h, the transfected cells were suspended and seeded into white 96-well plates, and then cultured at 37 °C overnight. After that the medium in each well was exchanged for 90 μl of 0.01% bovine serum albumin containing 20 μl of 50 μM coelenterazine h (Carbosynth) diluted in the HBSS assay buffer and incubated for 40 min at room temperature. Then, ligands diluted in the assay buffer was added to each well and the luminescence intensity was measured using the Synergy H1 microplate reader and detected at room temperature in a time period. All data presented are means of at least three independent experiments.

[1] = D295A-1 (run 1), β-arrestin1 recruitment
[2] = D295A-2 (run 2), β-arrestin1 recruitment
[3] = D295A-3 (run 3), β-arrestin1 recruitment
[4] = L290A-1 (run 1), β-arrestin1 recruitment
[5] = L290A-2 (run 2), β-arrestin1 recruitment
[6] = L290A-3 (run 3), β-arrestin1 recruitment
[7] = S279A-1 (run 1), β-arrestin1 recruitment
[8] = S279A-2 (run 2), β-arrestin1 recruitment
[9] = S279A-3 (run 3), β-arrestin1 recruitment
[10] = Y302A-1 (run 1), β-arrestin1 recruitment
[11] = Y302A-2 (run 2), β-arrestin1 recruitment
[12] = Y302A-3 (run 3), β-arrestin1 recruitment
[13] = best-fit value, I195A-1 (run 1)
[14] = best-fit value, I195A-2 (run 2)
[15] = best-fit value, I195A-3 (run 3)

C[C@@H](O)[C@@H]1NC(=O)[C@H](CCCCN)NC(=O)[C@@H](Cc2c[nH]c3ccccc23)NC(=O)[C@H](Cc2ccccc2)NC(=O)[C@@H](NC(=O)[C@H](N)Cc2ccccc2)CSSC[C@@H](C(=O)N[C@H](CO)[C@@H](C)O)NC1=O [octreotide]
Bottom (best-fit value) [1]: 0.2059 | LogEC50 (best-fit value) [1]: -6.975 | Span (best-fit value) [1]: 90.14 | Top (best-fit value) [1]: 90.34 | pEC50 (D295A-1 (run 1), β-arrestin1 recruitment, read-out: EC50 (best-fit value)): 6.98 | Bottom (best-fit value) [2]: -0.553 | LogEC50 (best-fit value) [2]: -6.954 | Span (best-fit value) [2]: 94.35 | Top (best-fit value) [2]: 93.8 | pEC50 (D295A-2 (run 2), β-arrestin1 recruitment, read-out: EC50 (best-fit value)): 6.95 | Bottom (best-fit value) [3]: -6.587 | LogEC50 (best-fit value) [3]: -6.025 | Span (best-fit value) [3]: 251.8 | Top (best-fit value) [3]: 245.2 | pEC50 (D295A-3 (run 3), β-arrestin1 recruitment, read-out: EC50 (best-fit value)): 6.02 | Bottom (best-fit) (F127A-1): -1.151 | LogEC50 (best-fit) (F127A-1): -8.337 | Span (best-fit) (F127A-1): 58.78 | Top (best-fit) (F127A-1): 57.63 | pEC50 (F127A-1, read-out: EC50 (best-fit)): 8.34 | Bottom (best-fit) (F127A-2): -1.134 | LogEC50 (best-fit) (F127A-2): -8.363 | Span (best-fit) (F127A-2): 52.24 | Top (best-fit) (F127A-2): 51.1 | pEC50 (F127A-2, read-out: EC50 (best-fit)): 8.36 | Bottom (best-fit) (F127A-3): -1.083 | LogEC50 (best-fit) (F127A-3): -8.391 | Span (best-fit) (F127A-3): 50.21 | Top (best-fit) (F127A-3): 49.13 | pEC50 (F127A-3, read-out: EC50 (best-fit)): 8.39 | Bottom (best-fit) (F208A-1): -1.787 | LogEC50 (best-fit) (F208A-1): -6.773 | Span (best-fit) (F208A-1): 82.48 | Top (best-fit) (F208A-1): 80.69 | pEC50 (F208A-1, read-out: EC50 (best-fit)): 6.77 | Bottom (best-fit) (F208A-2): -1.774 | LogEC50 (best-fit) (F208A-2): -6.823 | Span (best-fit) (F208A-2): 91.81 | Top (best-fit) (F208A-2): 90.03 | pEC50 (F208A-2, read-out: EC50 (best-fit)): 6.82 | Bottom (best-fit) (F208A-3): -1.249 | LogEC50 (best-fit) (F208A-3): -6.77 | Span (best-fit) (F208A-3): 80.71 | Top (best-fit) (F208A-3): 79.46 | pEC50 (F208A-3, read-out: EC50 (best-fit)): 6.77 | β-arrestin recruitment of mutant (F294(7.35)A): nearly impaired the octreotide-induced β-arrestin recruitment | β-arrestin signal of mutants (I284ECL3A and K291(7.32)A): reduced potency and efficacy of octreotide induced β-arrestin signal | Bottom (best-fit value) [4]: 5.848 | LogEC50 (best-fit value) [4]: -8.723 | Span (best-fit value) [4]: 78.77 | Top (best-fit value) [4]: 84.62 | pEC50 (L290A-1 (run 1), β-arrestin1 recruitment, read-out: EC50 (best-fit value)): 8.72 | Bottom (best-fit value) [5]: 5.656 | LogEC50 (best-fit value) [5]: -8.77 | Span (best-fit value) [5]: 81.03 | Top (best-fit value) [5]: 86.69 | pEC50 (L290A-2 (run 2), β-arrestin1 recruitment, read-out: EC50 (best-fit value)): 8.77 | Bottom (best-fit value) [6]: -1.116 | LogEC50 (best-fit value) [6]: -8.203 | Span (best-fit value) [6]: 76.53 | Top (best-fit value) [6]: 75.41 | pEC50 (L290A-3 (run 3), β-arrestin1 recruitment, read-out: EC50 (best-fit value)): 8.20 | β-arrestin recruitment of mutant (N276(6.55)A): nearly abolished the recruitment of β-arrestin | Best-fit values Bottom (P220A-1): 0.1149 | Best-fit values LogEC50 (P220A-1): -6.553 | Best-fit values Span (P220A-1): 34.49 | Best-fit values Top (P220A-1): 34.6 | pEC50 (P220A-1, read-out: Best-fit values EC50): 6.55 | Best-fit values Bottom (P220A-2): -0.6221 | Best-fit values LogEC50 (P220A-2): -7.989 | Best-fit values Span (P220A-2): 58.87 | Best-fit values Top (P220A-2): 58.25 | pEC50 (P220A-2, read-out: Best-fit values EC50): 7.99 | Best-fit values Bottom (P220A-3): -0.6988 | Best-fit values LogEC50 (P220A-3): -8.034 | Best-fit values Span (P220A-3): 50.86 | Best-fit values Top (P220A-3): 50.16 | pEC50 (P220A-3, read-out: Best-fit values EC50): 8.03 | Bottom (best-fit value) [7]: -1.308 | LogEC50 (best-fit value) [7]: -8.149 | Span (best-fit value) [7]: 94.92 | Top (best-fit value) [7]: 93.61 | pEC50 (S279A-1 (run 1), β-arrestin1 recruitment, read-out: EC50 (best-fit value)): 8.15 | Bottom (best-fit value) [8]: -2.227 | Span (best-fit value) [8]: 74.73 | Top (best-fit value) [8]: 72.5 | pEC50 (S279A-2 (run 2), β-arrestin1 recruitment, read-out: EC50 (best-fit value)): 7.67 | Bottom (best-fit value) [9]: 0.9887 | LogEC50 (best-fit value) [9]: -6.436 | Span (best-fit value) [9]: 131.8 | Top (best-fit value) [9]: 132.8 | pEC50 (S279A-3 (run 3), β-arrestin1 recruitment, read-out: EC50 (best-fit value)): 6.44 | Best-fit values Bottom (W269A-1): 0.3902 | Best-fit values LogEC50 (W269A-1): -7.096 | Best-fit values Span (W269A-1): 27.42 | Best-fit values Top (W269A-1): 27.81 | pEC50 (W269A-1, read-out: Best-fit values EC50): 7.10 | Best-fit values LogEC50 (W269A-2): -7.281 | Best-fit values Span (W269A-2): 32.61 | Best-fit values Top (W269A-2): 36.93 | pEC50 (W269A-2, read-out: Best-fit values EC50): 7.28 | Best-fit values Bottom (W269A-3): 3.687 | Best-fit values LogEC50 (W269A-3): -7.475 | Best-fit values Span (W269A-3): 31.64 | Best-fit values Top (W269A-3): 35.33 | pEC50 (W269A-3, read-out: Best-fit values EC50): 7.47 | Bottom (best-fit) (Y205A-1): -3.221 | LogEC50 (best-fit) (Y205A-1): -7.699 | Span (best-fit) (Y205A-1): 139.2 | Top (best-fit) (Y205A-1): 135.9 | pEC50 (Y205A-1, read-out: EC50 (best-fit)): 7.70 | Bottom (best-fit) (Y205A-2): -1.321 | LogEC50 (best-fit) (Y205A-2): -8.57 | Span (best-fit) (Y205A-2): 93.02 | Top (best-fit) (Y205A-2): 91.7 | pEC50 (Y205A-2, read-out: EC50 (best-fit)): 8.57 | Bottom (best-fit) (Y205A-3): 0.3514 | LogEC50 (best-fit) (Y205A-3): -7.837 | Span (best-fit) (Y205A-3): 328.7 | Top (best-fit) (Y205A-3): 329.1 | pEC50 (Y205A-3, read-out: EC50 (best-fit)): 7.84 | β-arrestin recruitment of mutant (Y302(7.43)A): slightly impaired | Bottom (best-fit value) [10]: -0.3068 | LogEC50 (best-fit value) [10]: -8.733 | Span (best-fit value) [10]: 87.43 | Top (best-fit value) [10]: 87.12 | pEC50 (Y302A-1 (run 1), β-arrestin1 recruitment, read-out: EC50 (best-fit value)): 8.73 | Bottom (best-fit value) [11]: 0.826 | LogEC50 (best-fit value) [11]: -8.763 | Span (best-fit value) [11]: 86.05 | Top (best-fit value) [11]: 86.87 | pEC50 (Y302A-2 (run 2), β-arrestin1 recruitment, read-out: EC50 (best-fit value)): 8.76 | Bottom (best-fit value) [12]: 1.139 | LogEC50 (best-fit value) [12]: -8.739 | Span (best-fit value) [12]: 85.71 | Top (best-fit value) [12]: 86.85 | pEC50 (Y302A-3 (run 3), β-arrestin1 recruitment, read-out: EC50 (best-fit value)): 8.74 | Bottom [13]: -0.3262 | LogEC50 [13]: -7.224 | Span [13]: 58.86 | Top [13]: 58.54 | pEC50 (best-fit value, I195A-1 (run 1), read-out: EC50): 7.22 | Bottom [14]: -0.9813 | LogEC50 [14]: -7.334 | Span [14]: 61.03 | Top [14]: 60.04 | pEC50 (best-fit value, I195A-2 (run 2), read-out: EC50): 7.33 | Bottom [15]: -0.6923 | LogEC50 [15]: -7.245 | Span [15]: 59.4 | Top [15]: 58.71 | pEC50 (best-fit value, I195A-3 (run 3), read-out: EC50): 7.25 | Bottom (best-fit value, L99A-1 (run 1)): 17.86 | LogEC50 (best-fit value, L99A-1 (run 1)): -6.902 | Span (best-fit value, L99A-1 (run 1)): 95.94 | Top (best-fit value, L99A-1 (run 1)): 113.8 | Bottom (best-fit value, L99A-2 (run 2)): -2.171 | LogEC50 (best-fit value, L99A-2 (run 2)): -7.606 | Span (best-fit value, L99A-2 (run 2)): 48.46 | Top (best-fit value, L99A-2 (run 2)): 46.29 | pEC50 (best-fit value, L99A-2 (run 2), read-out: EC50): 7.61 | Bottom (best-fit value, L99A-3 (run 3)): -2.89
